Measurements as given in patent US4110536A, “Derivatives of 5-(indol-3-yl)hydantoin” (Miles Laboratories, Inc., priority 1977, dated 1978).
Like-named read-outs stand apart in the source and are kept apart here.

Assays:
[1] = tested on: chloroform-induced arrhythmias; conditions: mouse, in vivo, ip, 10 min
Procedure: The antiarrhythmic activity of the compounds listed above were tested in the experimental model reported by J. W. Lawson (J. Pharmacol. Exp. Therap., 160: 22-31 (1968).
The test compounds were administered in varying intraperitoneal doses to groups consisting of 5 mice. Ten minutes after administration of a given dose of a compound, a mouse was transferred to a covered 300 ml glass beaker that contained a wad of cotton saturated with about 20 ml of chloroform. The animal was observed closely and removed from the beaker immediately after respiratory arrest. The heart was quickly exposed by making an incision through the abdomen, diaphragm, thorax and pericardium for visual inspection of ventricular rate and rhythm. Ventricular contractions were counted for 30 seconds. According to the procedure reported by Lawson, animals with ventricular rate not exceeding 100 contractions during the 30 second observation period were considered protected.

in vivo = conditions: mouse, ip
Procedure: (§1) LD50 data were obtained by standard procedures known to the art.
(§2) In order to obtain an indication of the specificity and/or safety margin of the antiarrhythmic effect, the acute toxicity of the compounds was investigated. This was carried out by administering log-spaced intraperitoneal doses of the test compounds to groups of five mice.

[2] = cited from earlier work
[3] = tested on: ventricular arrhythmias induced by digitalis; conditions: prior-art background; cited from earlier work

Procedure for mice: as §1, §2

Row | Molecule | ED50 [1] [mg/kg] | LD50 at 48 h (in vivo) [mg/kg] | selectivity ratio (in vivo) | also measured
1 | O=C1NC(Cc2c[nH]c3ccc(Cl)cc23)C(=O)N1CCCN1CCC(c2ccccc2)CC1 (stereo not shown) [Example 11, 5-(5-Chloroindol-3-ylmethyl)-3-[3-(4-phenyl-1-piperidyl)propyl]hydantoin] | 37 | 69 | 1.9 | –
2 | 5-[(indol-3-yl)methyl]hydantoin [V (R=II)] | 72 | – | – | Therapeutic Index (mice; LD50/ED50, mouse, i.p.): 4.3; LD50 (mice; mouse, in vivo, ip, 2880 min): 307 mg/kg
3 | O=C1NC(Cc2c[nH]c3ccccc23)C(=O)N1CCCN1CCC(c2ccccc2)CC1 (stereo not shown) [Example 9, 5-(Indol-3-ylmethyl)-3-[3-(4-phenyl-1-piperidyl)propyl]hydantoin] | 7.5 | 19 | 2.5 | –
4 | O=C1NC(Cc2c[nH]c3ccccc23)C(=O)N1CCCN1CCCCC1 (stereo not shown) [Example 20, 5-(Indol-3-ylmethyl)-3-(3-piperidylpropyl)hydantoin] | 23.8 | 190 | 8 | –
5 | O=C1NC(=O)C(c2ccccc2)(c2ccccc2)N1 [III, 5,5-diphenyl-2,4-imidazolidinedione] | 123 | – | – | side effects / toxicity ([2]; in vivo): dizziness, nausea, emesis, nystigmus, and ataxia; side effects / toxicity ([2]; prior-art background, listed as DPH): toxic and may produce atrio-ventricular blockage, bradycardia, or even cardiac arrest; antiarrhythmic effects [3]: specifically antagonizes ventricular arrhythmias induced by digitalis, depresses ventricular automaticity, enhances atrio-ventricular nodal conduction, and reduces the effective refractory period
6 | O=C1NC(c2c[nH]c3ccccc23)C(=O)N1CCCN1CCCCC1 (stereo not shown) [Example 6, 5-(Indol-3-yl)-3-[3-(piperid-1-yl)propyl]hydantoin] | – | 66 | 3.1 | –
7 | CCN(CC)CCCN1C(=O)NC(c2ccccc2)(c2c[nH]c3ccccc23)C1=O (stereo not shown) [Example 14, 3-(3-Diethylaminopropyl)-5-(indol-3-yl)-5-phenylhydantoin] | 27 | 48 | 1.8 | –
8 | CCN(CC)CCCN1C(=O)NC(c2c[nH]c3ccccc23)C1=O (stereo not shown) [Example 15, 3-(3-Diethylaminopropyl)-5-(indol-3-yl)hydantoin] | 44 | 79 | 1.8 | –
9 | C=C[C@H]1C[N@@]2CC[C@H]1C[C@@H]2[C@@H](O)c1ccnc2ccc(OC)cc12 [Quinidine] | – | – | – | side effects / toxicity ([2]; prior-art background): relatively toxic
10 | CCN(CC)CCCN1C(=O)NC(Cc2c[nH]c3ccc(OC)cc23)C1=O (stereo not shown) [Example 18, 3-(3-Diethylaminopropyl)-5-(5-methoxyindol-3-ylmethyl)hydantoin] | 13 | 61 | 4.7 | –
11 | O=C1NC(Cc2c[nH]c3ccccc23)C(=O)N1CCCN1CCC(O)(c2ccccc2)CC1 (stereo not shown) [Example 13, 3-[3-(4-Hydroxy-4-phenylpiperid-1-yl)propyl]-5-[(indol-3-yl)methyl]hydantoi] | 23 | 57 | 2.5 | –
12 | COc1ccc2[nH]cc(CC3NC(=O)N(CCCN4CCC(c5ccccc5)CC4)C3=O)c2c1 (stereo not shown) [Example 21, 5-(5-Methoxyindol-3-ylmethyl)-3-[3-(4-phenylpiperid-1-yl)propyl]hydantoin] | 9 | 24 | 2.7 | –
13 | CCN(CC)CCCN1C(=O)NC(Cc2c[nH]c3ccc(Cl)cc23)C1=O (stereo not shown) [Example 17, 5-(5-Chloroindol-3-ylmethyl)-3-(diethylaminopropyl)hydantoin] | 44 | 74 | 1.7 | –
14 | C[N+]1(CCCN2C(=O)NC(Cc3c[nH]c4ccccc34)C2=O)CCC(c2ccccc2)CC1 (stereo not shown) [Example 10, 5-(Indol-3-ylmethyl)-3-[3-(4-phenyl-1-piperidyl)propyl]hydantoin methiodide] | 19.6 | 69 | 3.5 | –
15 | O=C1NC(c2ccccc2)(c2c[nH]c3ccccc23)C(=O)N1CCCN1CCC(c2ccccc2)CC1 (stereo not shown) [Example 12, 5-(Indol-3-yl)-5-phenyl-3-[3-(4-phenyl-1-piperidyl)propyl]hydantoin] | 80 | 63 | 0.9 | –
